Laboratory results published in PubChem BioAssay (NCI).
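48-hour exposure; five concentrations; linearly interpolated endpoints. Definition used: TGI = concentration required for complete inhibition of growth.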 *1 amine or outer side, *2 acyl side, *3 side chain or, on linkers, in order; H or OH if unused. Where a SMILES comes first, the peptide text is derived from it. [ ]: non-standard residue; d: D form. ξ: configuration not given here. X22 = O=C(C(CC(O)CO)O[*:1])[*:2]; Ile(3ξ) = CCC(C)[C@H](N)C(=O)O; NMeV = CN[C@H](C(=O)O)C(C)C; NMeA = CN[C@@H](C)C(=O)O; βAla = NCCC(=O)O

What was measured:
Assay in all cases: inhibition of tumour cell growth, NCI panel, 48 h
NCI-H522 lung = tested on: NCI-H522 lung
SF-539 CNS = tested on: SF-539 CNS
HCC-2998 colon = tested on: HCC-2998 colon
A549 NSCLC = tested on: A549 NSCLC
HCT-15 colon = tested on: HCT-15 colon
SK-MEL-28 melanoma = tested on: SK-MEL-28 melanoma
NCI-H226 lung = tested on: NCI-H226 lung
MOLT-4 leukemia = tested on: MOLT-4 leukemia
A498 renal = tested on: A498 renal
UACC-257 melanoma = tested on: UACC-257 melanoma
ACHN renal = tested on: ACHN renal
SNB-19 CNS = tested on: SNB-19 CNS
M19-MEL melanoma = tested on: M19-MEL melanoma
KM20L2 colon = tested on: KM20L2 colon
K-562 leukemia = tested on: K-562 leukemia
COLO 205 colon = tested on: COLO 205 colon
HOP-18 NSCLC = tested on: HOP-18 NSCLC
SW-620 colon = tested on: SW-620 colon
DLD-1 colon = tested on: DLD-1 colon
UO-31 renal = tested on: UO-31 renal
SN12C renal = tested on: SN12C renal
SK-MEL-2 melanoma = tested on: SK-MEL-2 melanoma
HT29 colon = tested on: HT29 colon
RXF 393 renal = tested on: RXF 393 renal
LXFL 529 NSCLC = tested on: LXFL 529 NSCLC
RPMI-8226 leukemia = tested on: RPMI-8226 leukemia
HL-60(TB) leukemia = tested on: HL-60(TB) leukemia
OVCAR-3 ovarian = tested on: OVCAR-3 ovarian
786-0 renal = tested on: 786-0 renal
OVCAR-8 ovarian = tested on: OVCAR-8 ovarian
TK-10 renal = tested on: TK-10 renal
HOP-62 NSCLC = tested on: HOP-62 NSCLC
DMS 273 small cell lung = tested on: DMS 273 small cell lung
DMS 114 small cell lung = tested on: DMS 114 small cell lung
SF-295 CNS = tested on: SF-295 CNS
NCI-H460 lung = tested on: NCI-H460 lung
RXF-631 renal = tested on: RXF-631 renal
EKVX NSCLC = tested on: EKVX NSCLC
OVCAR-5 ovarian = tested on: OVCAR-5 ovarian
SK-OV-3 ovarian = tested on: SK-OV-3 ovarian
CCRF-CEM leukemia = tested on: CCRF-CEM leukemia
OVCAR-4 ovarian = tested on: OVCAR-4 ovarian
SF-268 CNS = tested on: SF-268 CNS
SNB-75 CNS = tested on: SNB-75 CNS
CAKI-1 renal = tested on: CAKI-1 renal
M14 melanoma = tested on: M14 melanoma
NCI-H23 lung = tested on: NCI-H23 lung
MALME-3M melanoma = tested on: MALME-3M melanoma
KM12 colon = tested on: KM12 colon
XF 498 CNS = tested on: XF 498 CNS
UACC-62 melanoma = tested on: UACC-62 melanoma
LOX IMVI melanoma = tested on: LOX IMVI melanoma
SK-MEL-5 melanoma = tested on: SK-MEL-5 melanoma
U251 CNS = tested on: U251 CNS
IGROV1 ovarian = tested on: IGROV1 ovarian
SR leukemia = tested on: SR leukemia
HCT-116 colon = tested on: HCT-116 colon
SNB-78 CNS = tested on: SNB-78 CNS
HOP-92 NSCLC = tested on: HOP-92 NSCLC

c1ccc2c(c1)N=C(c1ccc3ccccc3c1)CC(c1cccc3ccccc13)S2 (stereo not drawn)
TGI (NCI-H522 lung): 75.4 µM | TGI (SF-539 CNS): > 100 µM | TGI (HCC-2998 colon): 40.3 µM | TGI (A549 NSCLC): > 100 µM | TGI (HCT-15 colon): > 100 µM | TGI (SK-MEL-28 melanoma): > 100 µM | TGI (NCI-H226 lung): > 100 µM | TGI (MOLT-4 leukemia): 44.2 µM | TGI (A498 renal): 75.4 µM | TGI (UACC-257 melanoma): > 100 µM | TGI (ACHN renal): > 100 µM | TGI (SNB-19 CNS): > 100 µM | TGI (M19-MEL melanoma): > 100 µM | TGI (KM20L2 colon): > 100 µM | TGI (K-562 leukemia): 54 µM | TGI (COLO 205 colon): > 100 µM | TGI (HOP-18 NSCLC): > 100 µM | TGI (SW-620 colon): > 100 µM | TGI (DLD-1 colon): > 100 µM | TGI (UO-31 renal): > 100 µM | TGI (SN12C renal): > 100 µM | TGI (SK-MEL-2 melanoma): > 100 µM | TGI (HT29 colon): > 100 µM | TGI (RXF 393 renal): > 100 µM | TGI (LXFL 529 NSCLC): > 100 µM | TGI (RPMI-8226 leukemia): 52.5 µM | TGI (HL-60(TB) leukemia): 47.1 µM | TGI (OVCAR-3 ovarian): > 100 µM | TGI (786-0 renal): > 100 µM | TGI (OVCAR-8 ovarian): > 100 µM | TGI (TK-10 renal): > 100 µM | TGI (HOP-62 NSCLC): > 100 µM | TGI (DMS 273 small cell lung): > 100 µM | TGI (DMS 114 small cell lung): > 100 µM | TGI (SF-295 CNS): > 100 µM | TGI (NCI-H460 lung): > 100 µM | TGI (RXF-631 renal): > 100 µM | TGI (EKVX NSCLC): > 100 µM | TGI (OVCAR-5 ovarian): > 100 µM | TGI (SK-OV-3 ovarian): > 100 µM | TGI (CCRF-CEM leukemia): 33.5 µM | TGI (OVCAR-4 ovarian): > 100 µM | TGI (SF-268 CNS): > 100 µM | TGI (SNB-75 CNS): > 100 µM | TGI (CAKI-1 renal): > 100 µM | TGI (M14 melanoma): > 100 µM | TGI (NCI-H23 lung): > 100 µM | TGI (MALME-3M melanoma): > 100 µM | TGI (KM12 colon): > 100 µM | TGI (XF 498 CNS): > 100 µM | TGI (UACC-62 melanoma): > 100 µM | TGI (LOX IMVI melanoma): > 100 µM | TGI (SK-MEL-5 melanoma): > 100 µM | TGI (U251 CNS): > 100 µM | TGI (IGROV1 ovarian): > 100 µM

CCC(C)[C@@H]1NC(=O)[C@@H]2CCCN2C(=O)C(CC(O)CO)OC(=O)CCNC(=O)[C@H](C)N(C)C(=O)[C@H](C(C)C)N(C)C1=O (stereo partly drawn) (cyclo([Ile(3ξ)][NMeV][NMeA][βAla][X22]P))
TGI (SF-539 CNS): > 100 µM | TGI (A549 NSCLC): > 100 µM | TGI (HCT-15 colon): > 100 µM | TGI (SR leukemia): > 100 µM | TGI (SK-MEL-28 melanoma): > 100 µM | TGI (NCI-H226 lung): > 100 µM | TGI (MOLT-4 leukemia): > 100 µM | TGI (A498 renal): > 100 µM | TGI (UACC-257 melanoma): > 100 µM | TGI (SNB-19 CNS): > 100 µM | TGI (M19-MEL melanoma): > 100 µM | TGI (KM20L2 colon): > 100 µM | TGI (K-562 leukemia): > 100 µM | TGI (COLO 205 colon): > 100 µM | TGI (SW-620 colon): > 100 µM | TGI (DLD-1 colon): > 100 µM | TGI (UO-31 renal): > 100 µM | TGI (SN12C renal): > 100 µM | TGI (SK-MEL-2 melanoma): > 100 µM | TGI (HT29 colon): > 100 µM | TGI (RXF 393 renal): > 100 µM | TGI (LXFL 529 NSCLC): > 100 µM | TGI (RPMI-8226 leukemia): > 100 µM | TGI (HL-60(TB) leukemia): > 100 µM | TGI (OVCAR-3 ovarian): > 100 µM | TGI (HCT-116 colon): > 100 µM | TGI (786-0 renal): > 100 µM | TGI (OVCAR-8 ovarian): > 100 µM | TGI (TK-10 renal): > 100 µM | TGI (HOP-62 NSCLC): > 100 µM | TGI (SNB-78 CNS): > 100 µM | TGI (DMS 273 small cell lung): > 100 µM | TGI (SF-295 CNS): > 100 µM | TGI (NCI-H460 lung): > 100 µM | TGI (RXF-631 renal): > 100 µM | TGI (OVCAR-5 ovarian): > 100 µM | TGI (SK-OV-3 ovarian): > 100 µM | TGI (CCRF-CEM leukemia): > 100 µM | TGI (OVCAR-4 ovarian): > 100 µM | TGI (SF-268 CNS): > 100 µM | TGI (SNB-75 CNS): > 100 µM | TGI (CAKI-1 renal): > 100 µM | TGI (M14 melanoma): > 100 µM | TGI (NCI-H23 lung): > 100 µM | TGI (MALME-3M melanoma): > 100 µM | TGI (KM12 colon): > 100 µM | TGI (XF 498 CNS): > 100 µM | TGI (HOP-92 NSCLC): > 100 µM | TGI (UACC-62 melanoma): > 100 µM | TGI (LOX IMVI melanoma): > 100 µM | TGI (SK-MEL-5 melanoma): > 100 µM | TGI (U251 CNS): > 100 µM | TGI (IGROV1 ovarian): > 100 µM
